Data published in publication PMC11266321 (EJNMMI Radiopharmacy and Chemistry, 2024).
Values joined by “and” are separate entries in the source; they are usually repeats but may differ in a detail not shown here. Equal values may be shown once.

Columns and labels:
[1] = Tissue distribution of radioactivity in mice; assay type: in vivo, mouse; details: mean ± SD n = 4
Method: (§1) [^11C]MMP (8.1 MBq/17 pmol) was injected intravenously into 8-week-old male ddY mice (37.8–42.4 g). The tracer-injected mice were housed individually in filter-paper-lined animal-rearing cages until the time of euthanasia. Mice were euthanized by cervical dislocation at 1, 5, 15, 30, 60, and 90 min after injection (n = 4 each). Blood was collected by heart puncture, and the tissues were harvested. Radioactivity excreted into urine was recovered from the cage floor and by cystocentesis from the urinary bladder. The samples were measured for ^11C radioactivity with an auto-gamma counter (Hidex-AMG, Turku, Finland) and weighed. Tissue uptake of ^11C was expressed as the percentage of injected dose per organ (%ID/organ) or the percentage of injected dose per gram of tissue (%ID/g). The tissue distribution data were extrapolated to an adult male phantom using the %kg/g method (Blau [1975]). The radiation absorbed dose and effective dose for human adults were estimated using OLINDA/EXM software (Vanderbilt University, Nashville, TN) (Stabin et al. [2005]). Effective dose was estimated using the risk-weighting factor of ICRP Publication 103 (ICRP [2007]).

[2] = Radiation dosimetry for human adults estimated from mouse data (OLINDA/EXM)
Method: as §1

[3] = pH 5.36
[4] = human adults, estimated from mouse data

## CC(C)NC(C)Cc1ccc([11CH3])cc1 (centres unmarked) [[^11C]MMP, N-isopropyl-4-[^11C]methylamphetamine]
[1]; 30 min after i.v. injection
  Injected dose/organ (%), Bladder: 2.40 ± 1.59 %ID/organ
  Injected dose/organ (%), Bladder + urine: 32.99 ± 3.90 %ID/organ
  Injected dose/organ (%), Brain: 1.09 ± 0.11 %ID/organ
  Injected dose/organ (%), Heart: 0.21 ± 0.01 %ID/organ
  Injected dose/organ (%), Kidney: 4.79 ± 1.06 %ID/organ
  Injected dose/organ (%), Large intestine: 1.59 ± 0.61 %ID/organ
  Injected dose/organ (%), Liver: 12.97 ± 1.05 %ID/organ
  Injected dose/organ (%), Lung: 0.79 ± 0.09 %ID/organ
  Injected dose/organ (%), Pancreas: 0.83 ± 0.03 %ID/organ
  Injected dose/organ (%), Small intestine: 3.66 ± 0.59 %ID/organ
  Injected dose/organ (%), Spleen: 0.35 ± 0.07 %ID/organ
  Injected dose/organ (%), Stomach: 1.76 ± 0.50 %ID/organ
  Injected dose/organ (%), Testis: 0.52 ± 0.11 %ID/organ
  Injected dose/organ (%), Urine: 30.59 ± 5.33 %ID/organ
[1]; 60 min after i.v. injection
  Injected dose/g tissue (%), Blood: 0.56 ± 0.23 %ID/g
  Injected dose/g tissue (%), Bone: 0.49 ± 0.04 %ID/g
  Injected dose/g tissue (%), Brain: 1.01 ± 0.09 %ID/g
  Injected dose/g tissue (%), Heart: 0.56 ± 0.22 %ID/g
  Injected dose/g tissue (%), Kidney: 3.73 ± 3.22 %ID/g
  Injected dose/g tissue (%), Large intestine: 0.61 ± 0.27 %ID/g
  Injected dose/g tissue (%), Liver: 2.93 ± 0.85 %ID/g
  Injected dose/g tissue (%), Lung: 1.73 ± 0.45 %ID/g
  Injected dose/g tissue (%), Muscle: 0.51 ± 0.24 %ID/g
  Injected dose/g tissue (%), Pancreas: 2.52 ± 0.24 %ID/g
  Injected dose/g tissue (%), Small intestine: 1.88 ± 0.59 %ID/g
  Injected dose/g tissue (%), Spleen: 1.47 ± 0.44 %ID/g
  Injected dose/g tissue (%), Stomach: 1.27 ± 0.89 %ID/g
  Injected dose/g tissue (%), Testis: 1.85 ± 0.35 %ID/g
  Injected dose/organ (%), Bladder: 0.23 ± 0.12 %ID/organ
  Injected dose/organ (%), Bladder + urine: 53.94 ± 7.66 %ID/organ
  Injected dose/organ (%), Brain: 0.41 ± 0.06 %ID/organ
  Injected dose/organ (%), Heart: 0.11 ± 0.03 %ID/organ
  Injected dose/organ (%), Kidney: 2.37 ± 2.03 %ID/organ
  Injected dose/organ (%), Large intestine: 0.85 ± 0.51 %ID/organ
  Injected dose/organ (%), Liver: 6.29 ± 1.96 %ID/organ
  Injected dose/organ (%), Lung: 0.36 ± 0.10 %ID/organ
  Injected dose/organ (%), Pancreas: 0.47 ± 0.04 %ID/organ
  Injected dose/organ (%), Small intestine: 3.41 ± 0.77 %ID/organ
  Injected dose/organ (%), Spleen: 0.17 ± 0.02 %ID/organ
  Injected dose/organ (%), Stomach: 0.82 ± 0.44 %ID/organ
  Injected dose/organ (%), Testis: 0.53 ± 0.15 %ID/organ
  Injected dose/organ (%), Urine: 53.71 ± 7.68 %ID/organ
[1]; 90 min after i.v. injection
  Injected dose/g tissue (%), Blood: 0.23 ± 0.09 %ID/g
  Injected dose/g tissue (%), Bone: 0.59 ± 0.14 %ID/g
  Injected dose/g tissue (%), Brain: 0.45 ± 0.08 %ID/g
  Injected dose/g tissue (%), Heart: 0.35 ± 0.14 %ID/g
  Injected dose/g tissue (%), Kidney: 6.64 ± 3.76 %ID/g
  Injected dose/g tissue (%), Large intestine: 0.61 ± 0.16 %ID/g
  Injected dose/g tissue (%), Liver: 1.94 ± 0.88 %ID/g
  Injected dose/g tissue (%), Lung: 1.03 ± 0.13 %ID/g
  Injected dose/g tissue (%), Muscle: 0.42 ± 0.18 %ID/g
  Injected dose/g tissue (%), Pancreas: 1.25 ± 0.34 %ID/g
  Injected dose/g tissue (%), Small intestine: 1.34 ± 1.24 %ID/g
  Injected dose/g tissue (%), Spleen: 0.56 ± 0.17 %ID/g
  Injected dose/g tissue (%), Stomach: 1.52 ± 1.28 %ID/g
  Injected dose/g tissue (%), Testis: 1.47 ± 0.44 %ID/g
  Injected dose/organ (%), Bladder: 2.32 ± 1.75 %ID/organ
  Injected dose/organ (%), Bladder + urine: 58 %ID/organ and 57.89 ± 3.18 %ID/organ
  Injected dose/organ (%), Brain: 0.21 ± 0.07 %ID/organ
  Injected dose/organ (%), Heart: 0.07 ± 0.03 %ID/organ
  Injected dose/organ (%), Kidney: 4.56 ± 2.94 %ID/organ
  Injected dose/organ (%), Large intestine: 0.77 ± 0.16 %ID/organ
  Injected dose/organ (%), Liver: 4.85 ± 2.18 %ID/organ
  Injected dose/organ (%), Lung: 0.23 ± 0.03 %ID/organ
  Injected dose/organ (%), Pancreas: 0.25 ± 0.05 %ID/organ
  Injected dose/organ (%), Small intestine: 2.47 ± 2.43 %ID/organ
  Injected dose/organ (%), Spleen: 0.08 ± 0.03 %ID/organ
  Injected dose/organ (%), Stomach: 0.84 ± 0.56 %ID/organ
  Injected dose/organ (%), Testis: 0.49 ± 0.17 %ID/organ
  Injected dose/organ (%), Urine: 55.57 ± 3.04 %ID/organ
[2]; administration of 740 MBq
  Effective dose: 4.0 mSv
  highest absorbed dose, urinary bladder wall: 42.6 mGy
[2]; [4]
  Absorbed dose, Adrenal: 2.21 µGy/MBq
  Absorbed dose, Brain: 3.67 µGy/MBq
  Absorbed dose, Breast: 1.34 µGy/MBq
  Absorbed dose, Gallbladder wall: 2.43 µGy/MBq
  Absorbed dose, Heart wall: 3.02 µGy/MBq
  Absorbed dose, Kidney: 8.6 µGy/MBq and 8.56 µGy/MBq
  Absorbed dose, Liver: 4.78 µGy/MBq
  Absorbed dose, Lower large intestine wall: 4.03 µGy/MBq
  Absorbed dose, Lungs: 7.3 µGy/MBq and 7.29 µGy/MBq
  Absorbed dose, Muscle: 2.70 µGy/MBq
  Absorbed dose, Osteogenic cells: 2.41 µGy/MBq
  Absorbed dose, Ovaries: 3.09 µGy/MBq
  Absorbed dose, Pancreas: 5.5 µGy/MBq and 5.53 µGy/MBq
  Absorbed dose, Red marrow: 2.12 µGy/MBq
  Absorbed dose, Skin: 1.29 µGy/MBq
  Absorbed dose, Small intestine: 4.51 µGy/MBq
  Absorbed dose, Spleen: 3.57 µGy/MBq
  Absorbed dose, Stomach wall: 3.59 µGy/MBq
  Absorbed dose, Testes: 2.66 µGy/MBq
  Absorbed dose, Thymus: 1.70 µGy/MBq
  Absorbed dose, Thyroid: 1.62 µGy/MBq
  Absorbed dose, Total body: 2.65 µGy/MBq
  Absorbed dose, Upper large intestine wall: 3.32 µGy/MBq
  Absorbed dose, Urinary bladder wall: 57.6 µGy/MBq
  Absorbed dose, Uterus: 4.51 µGy/MBq
[3]
  Radiochemical purity (stability test), mean of three runs: 99.7 ± 0.2%
